Data from patent publication US8455223B2, “Dehydrogenases, the derivatives thereof, and method for the production of optically active alkanols” (BASF SE, priority 2005, dated 2013).

Experiments:
[1] = system: ADH-3 enzyme SEQ ID NO: 2; experiment: Relative activity of dehydrogenase for various substrates, without cofactor regeneration (Example 1); format: biochemical, Candida; conditions: 37° C., approx. 20 hours, chiral gas chromatography
Procedure: (§1) Relative activity of the dehydrogenases of the invention for various substrates (optical purity in % ee is indicated in brackets)
(§2) The reaction was carried out without cofactor regeneration.
(§3) 180 μl of 50 mM Kpi buffer, including 1 mM MgCl2
(§4) 200 μl of NADPH, 10 mM stock solution
(§5) 100 μl of substrate, 1 M stock solution 500 μl of hexane
(§6) The reaction mixture was incubated at 37° C. and 1000 rpm for approx. 20 hours. It was then centrifuged at 20° C., the clear supernatant was removed and analyzed by chiral gas chromatography.

[2] = system: ADH-4 enzyme SEQ ID NO: 4; experiment: as above; format: biochemical, Candida; conditions: 37° C., approx. 20 hours, chiral gas chromatography
Procedure: as §1, §2, §3, §4, §5, §6

[3] = system: Comparative enzyme EP 1152054 SEQ ID NO: 1; experiment: as above; format: biochemical; conditions: 37° C., approx. 20 hours
Procedure: as §1, §2, §3, §4, §5, §6

[4] = system: ADH-3 enzyme SEQ ID NO: 2; experiment: Relative activity of dehydrogenase for various substrates, with cofactor regeneration in the 2-phase system (Example 3); format: biochemical, Candida
[5] = system: ADH-4 enzyme SEQ ID NO: 4; experiment: as above; format: biochemical, Candida
[6] = system: Comparative enzyme EP 1152054 SEQ ID NO: 1; experiment: as above; format: biochemical
[7] = system: ADH-3 enzyme SEQ ID NO: 2; experiment: Relative activity of dehydrogenase for various substrates, with cofactor regeneration, monophasic liquid system (Example 2); format: biochemical, Candida; conditions: cofactor regeneration with glucose and glucose dehydrogenase
Procedure: (§7) Relative activity of the dehydrogenases of the invention for various substrates (optical purity in % ee is indicated in brackets) with cofactor regeneration.
(§8) The reaction was carried out in a manner similar to example 1. Cofactor regeneration was carried out by way of addition of glucose and glucose dehydrogenase in a monophasic liquid system.

[8] = system: Comparative enzyme EP 1152054 SEQ ID NO: 1; experiment: as above; format: biochemical; conditions: cofactor regeneration with glucose and glucose dehydrogenase
Procedure: as §7, §8

[9] = system: ADH-4 enzyme SEQ ID NO: 4; experiment: as above; format: biochemical, Candida; conditions: cofactor regeneration with glucose and glucose dehydrogenase
Procedure: as §7, §8

[10] = ADH-3 enzyme, cofactor regeneration, two-phase liquid system (MTBE: aqueous)
[11] = ADH-4 enzyme, cofactor regeneration, two-phase liquid system (MTBE: aqueous)
[12] = cofactor regeneration, two-phase liquid system (MTBE: aqueous)

Molecule | Relative activity [1] | Relative activity [2] | Relative activity [3] | Relative activity [4, 10] | Relative activity [5, 11] | Relative activity [6, 12] | Relative activity [7] | Relative activity [8] | Relative activity [9] | Relative activity [4] | Relative activity [5] | Relative activity ([6]; […])
4-chloro-methoxyacetophenone [CMAP] | 34.46 | 24.89 | 29.44 | 100 | 77.1 | 46.8 | – | – | – | – | – | –
CC(=O)c1ccccc1 [Acetophenone] | 16.08 | 3.14 | 0.84 | 71.2 | 0.4 | 0.2 | 8.9 | 0.7 | – | – | – | –
O=C(CCl)c1ccc(F)cc1 [FCA, 4′-fluoro-2-chloro-acetophenone] | – | – | – | – | – | – | 99.5 | 50.4 | 53.6 | 99.5 | 15.3 | 12.6
O=C(CCl)c1cccc(Cl)c1 [m-DICAP, 2,3′-dichloro-acetophenone] | 100 | 56.38 | 2.3 | – | – | – | 100 | 47.1 | 55.8 | 100 | 24.6 (6% S) | 14 (>99% R)
O=C(CCl)c1ccc(Cl)cc1 [p-DICAP, 2,4′-dichloro-acetophenone] | – | – | – | – | – | – | 18.9 | 62.5 | 62.1 | 30.4 (>99% R) | 27.6 (42% S) | 24.2 (>99% R)
